Values quoted from earlier work as cited in patent US5952465A, “Polypeptides that include conformation-constraining groups which flank a protein-protein interaction site” (Virginia Commonwealth University, priority 1998, dated 1999).
Where a SMILES comes first, the peptide text is derived from it.

Tested on: receptors of sweet tasting papillae
Conditions: comparison substance

COC(=O)[C@H](Cc1ccccc1)NC(=O)[C@@H](N)CC(=O)O [aspartame] (H-Asp-Phe-OMe)
Sweetness relative to sugar: 160 times sweeter than sugar
